The test system of this test is S. pneumoniae (highly virulent strain). The test can be described thus: In vivo antipneumococcal activity, pneumococcal bacteremia (lethal systemic infection) model. Further details: species or system mice. The following applies: for survival of infected mice up to seven days post-infection: 1.5 × 10^2 CFU/mouse IP, 10 mice; for survival of infected mice, treatment via SC and IN routes: up to seven days post-infection. The protocol:
Two pneumococcal infection models developed previously in our lab ([Le et al., 2015]) were used to assess the therapeutic efficacy of peptides in vivo. The systemic infection model was used to mimic pneumococcal bacteremia in humans and the pneumococcal pneumonia model was used to mimic pneumococcal pneumonia in humans. A highly virulent strain was used in both the models. The bacterial isolate was grown overnight on Columbia agar with 5% sheep blood at 37 °C under 5% CO2. The bacterial suspension was adjusted to OD625 0.08-0.1 (1 ∼ 2 × 10^8 CFU/ml). Mice tested for lethal systemic infection were inoculated with 1.5 × 10^2 CFU/mouse (100 μl) via IP route. Mice used to assess the Pneumococcal pneumonia model were inoculated with pneumococcal cells of 5 × 10^3 CFU/mouse (50 μl) via the intrathoracic route.
After 1 hr of inoculation, Mice receiving treatment were randomized and divided into six groups. RN7-IN10 and RN7-IN8 were tested at three different doses for each (5 mg/kg, 10 mg/kg and 20 mg/kg) using a group of 10 mice. Graded doses of ceftriaxone (5 mg/kg, 10 mg/kg, […], 40 mg/kg and 80 mg/kg) were also tested to assess the in vivo antibacterial activity of this antibiotic. Only mice injected with PBS were served as uninfected control. Mice injected with bacterial inoculum were used as untreated control group and given sterile distilled water only. Survival of mice was documented for seven days or until death. After seven days, the experiment was ended, the blood and homogenates of the five major organs (kidney, brain, spleen, liver and lung) of the surviving mice were plated on Columbia agar with 5% sheep blood, to detect the presence of pneumococcal cells. […]

[1] abbreviates: treatment IP 5 mg/kg (peptides at 1 h, 12 h, 24 h post-infection).
Where [2] appears, read: treatment IP 10 mg/kg (peptides at 1 h, 12 h, 24 h post-infection).
[3] abbreviates: treatment IP 20 mg/kg (peptides at 1 h, 12 h, 24 h post-infection).

In the case of “FLGGLIKWKWPWWPWRR-NH2 [RN7-IN10, hybrid peptide of ranalexin (residues 1-7) and indolicidin (residues 4-13)]”, the “survival of infected mice, treatment via SC and IN routes” value was “none of the mice survived”. Under setting [1], the “survival of infected mice up to seven days post-infection” value (“survival of infected mice up” for short) is reported as “failed to treat any of the infected mice”. The “survival of infected mice up” value under setting [2] came out at 10%. Further, the “survival of infected mice up” value under setting [3] stood at 30%.
Turning to “FLGGLIKWPWWPWRR-NH2 [RN7-IN8, hybrid peptide of ranalexin (residues 1-7) and indolicidin (residues 6-13)]”, the “survival of infected mice, treatment via SC and IN routes” value was “none of the mice survived”. The “survival of infected mice up” value under setting [1] is “failed to treat any of the infected mice”. For the same substance, under setting [2], the “survival of infected mice up” value is 30%. The “survival of infected mice up” value under setting [3] came to 50%.
